Test results published in the Kinase Knowledgebase extract (Sharma et al. 2016).

Molecular target: ROCK2 (human) (UniProt O75116)
Test: Inhibition of ROCK2 Kinase Activity

ROCK2 (human), sequence (O75116 whole entry, looked up): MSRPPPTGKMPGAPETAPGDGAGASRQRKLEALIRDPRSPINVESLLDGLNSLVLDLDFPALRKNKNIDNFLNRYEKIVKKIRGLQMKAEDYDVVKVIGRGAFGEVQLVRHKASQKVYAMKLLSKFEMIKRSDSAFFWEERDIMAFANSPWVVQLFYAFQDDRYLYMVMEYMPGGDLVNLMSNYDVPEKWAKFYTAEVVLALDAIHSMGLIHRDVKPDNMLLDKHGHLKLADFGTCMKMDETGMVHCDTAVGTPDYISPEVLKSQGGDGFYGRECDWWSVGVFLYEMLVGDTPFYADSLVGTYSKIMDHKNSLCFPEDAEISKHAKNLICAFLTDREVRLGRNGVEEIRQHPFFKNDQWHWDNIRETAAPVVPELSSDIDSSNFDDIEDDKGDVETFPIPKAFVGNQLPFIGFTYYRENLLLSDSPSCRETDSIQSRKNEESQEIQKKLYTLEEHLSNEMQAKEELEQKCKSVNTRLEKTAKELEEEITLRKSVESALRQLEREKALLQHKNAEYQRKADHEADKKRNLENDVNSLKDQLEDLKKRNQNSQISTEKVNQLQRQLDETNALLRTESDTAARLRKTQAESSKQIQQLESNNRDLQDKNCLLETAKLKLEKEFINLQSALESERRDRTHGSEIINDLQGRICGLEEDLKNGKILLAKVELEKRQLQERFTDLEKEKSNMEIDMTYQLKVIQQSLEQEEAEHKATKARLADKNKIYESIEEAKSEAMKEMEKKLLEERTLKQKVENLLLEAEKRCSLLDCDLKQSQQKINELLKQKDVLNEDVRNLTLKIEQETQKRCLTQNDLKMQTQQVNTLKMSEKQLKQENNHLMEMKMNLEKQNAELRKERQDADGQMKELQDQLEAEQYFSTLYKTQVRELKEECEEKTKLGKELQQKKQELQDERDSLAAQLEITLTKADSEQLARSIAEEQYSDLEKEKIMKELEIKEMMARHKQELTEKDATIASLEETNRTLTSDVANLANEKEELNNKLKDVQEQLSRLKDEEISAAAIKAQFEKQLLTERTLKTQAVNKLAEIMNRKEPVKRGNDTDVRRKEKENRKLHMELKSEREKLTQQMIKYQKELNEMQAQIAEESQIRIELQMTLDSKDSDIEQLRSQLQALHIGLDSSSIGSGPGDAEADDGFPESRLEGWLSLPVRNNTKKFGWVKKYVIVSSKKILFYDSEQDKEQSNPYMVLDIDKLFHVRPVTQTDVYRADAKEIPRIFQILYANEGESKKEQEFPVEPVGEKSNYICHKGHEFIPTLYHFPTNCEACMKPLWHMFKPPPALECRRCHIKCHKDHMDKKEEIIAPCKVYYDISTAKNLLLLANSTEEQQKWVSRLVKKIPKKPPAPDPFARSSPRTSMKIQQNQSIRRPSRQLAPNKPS

## NC(CC(=O)NC(Cc1ccccc1)c1ccccc1)c1ccc(C(=O)Nc2ccncc2)cc1 (stereo not given)
  IC50: 50 to 500 nM

## Cc1cc(Cl)cc(Cl)c1CNC(=O)CC(N)c1ccc(C(=O)Nc2ccncc2)cc1 (stereo not given)
  IC50: 50 to 500 nM

## CN(CC(N)c1ccc(C(=O)Nc2ccncc2)cc1)C(=O)Cc1cccc(Cl)c1F (stereo not given)
  IC50: 500 to 5000 nM

## CC(C)(C)c1ccc(NC(=S)NCC(N)c2ccc(C(=O)Nc3ccncc3)cc2)cc1 (stereo not given)
  IC50: 500 to 5000 nM

## NC(c1ccc(C(=O)Nc2ccncc2)cc1)C1CCCN1C(=O)Cc1c(F)cccc1F (stereo not given)
  IC50: 500 to 5000 nM

## NC(CC(=O)N[C@H]1CCc2ccccc21)c1ccc(C(=O)Nc2ccncc2)cc1 (stereo not given in full)
  IC50: 50 to 500 nM

## Cc1ccccc1C(=O)NCC(N)c1ccc(C(=O)Nc2ccncc2)cc1 (stereo not given)
  IC50: 500 to 5000 nM

## NC(CC(=O)NC1CCCCC1)c1ccc(C(=O)Nc2ccncc2)cc1 (stereo not given)
  IC50: 50 to 500 nM

## NC(CNC(=O)Cc1cccc(Cl)c1)c1ccc(C(=O)Nc2ccncc2)cc1 (stereo not given)
  IC50: 50 to 500 nM

## NC(CNC(=O)C1CCCCC1)c1ccc(C(=O)Nc2ccncc2)cc1 (stereo not given)
  IC50: 500 to 5000 nM

## NC(CC(=O)NCc1cc(C(F)(F)F)cc(C(F)(F)F)c1)c1ccc(C(=O)Nc2ccncc2)cc1 (stereo not given)
  IC50: 50 to 500 nM

## CC(C)=NOC(C)C(=O)NCC(N)c1ccc(C(=O)Nc2ccncc2)cc1 (stereo not given)
  IC50: 500 to 5000 nM

## CN(CC(N)c1ccc(C(=O)Nc2ccncc2)cc1)C(=O)Cc1csc(-c2ccccc2)n1 (stereo not given)
  IC50: 500 to 5000 nM

## NC(CC(=O)NCc1ccco1)c1ccc(C(=O)Nc2ccncc2)cc1 (stereo not given)
  IC50: 50 to 500 nM

## Cc1ccc(C)c(CNC(=O)CC(N)c2ccc(C(=O)Nc3ccncc3)cc2)c1 (stereo not given)
  IC50: 50 to 500 nM

## N[C@H](CNC(=O)C1(c2ccc(Cl)cc2)CC1)c1ccc(C(=O)Nc2ccncc2)cc1
  IC50: 50 to 500 nM

## NC(CC(=O)NCc1ccc(C(F)(F)F)c(F)c1)c1ccc(C(=O)Nc2ccncc2)cc1 (stereo not given)
  IC50: 50 to 500 nM

## CCSCC(=O)NCC(N)c1ccc(C(=O)Nc2ccncc2)cc1 (stereo not given)
  IC50: 50 to 500 nM

## CCC(C)C(=O)NCC(N)c1ccc(C(=O)Nc2ccncc2)cc1 (stereo not given)
  IC50: 500 to 5000 nM

## NC(CC(=O)NCc1ccc(Br)cc1F)c1ccc(C(=O)Nc2ccncc2)cc1 (stereo not given)
  IC50: 50 to 500 nM

## NC(CC(=O)N[C@H]1CCCc2ccccc21)c1ccc(C(=O)Nc2ccncc2)cc1 (stereo not given in full)
  IC50: 50 to 500 nM

## CC(Cc1c[nH]c2ccccc12)NC(=O)CC(N)c1ccc(C(=O)Nc2ccncc2)cc1 (stereo not given)
  IC50: 50 to 500 nM

## CN(CC(N)c1ccc(C(=O)Nc2ccncc2)cc1)C(=O)Cc1ccc(F)c(F)c1 (stereo not given)
  IC50: 500 to 5000 nM

## CCOc1ccc(CCNC(=O)CC(N)c2ccc(C(=O)Nc3ccncc3)cc2)cc1 (stereo not given)
  IC50: 50 to 500 nM

## CC(C)CC(=O)NCC(N)c1ccc(C(=O)Nc2ccncc2)cc1 (stereo not given)
  IC50: 500 to 5000 nM

## CN(CC(N)c1ccc(C(=O)Nc2ccncc2)cc1)C(=O)C1(c2ccc(Cl)cc2F)CC1 (stereo not given)
  IC50: 500 to 5000 nM

## NC(c1ccc(C(=O)Nc2ccncc2)cc1)C1CCCN1C(=O)Cc1ccc(Br)cc1 (stereo not given)
  IC50: 50 to 500 nM

## NC(CC(=O)NCCc1ccc(Cl)c(Cl)c1)c1ccc(C(=O)Nc2ccncc2)cc1 (stereo not given)
  IC50: 50 to 500 nM

## NC(CNC(=O)c1cccc2ccccc12)c1ccc(C(=O)Nc2ccncc2)cc1 (stereo not given)
  IC50: 500 to 5000 nM

## CN(CC(N)c1ccc(C(=O)Nc2ccncc2)cc1)C(=O)Cc1cccc2ccccc12 (stereo not given)
  IC50: 500 to 5000 nM

## NC(c1ccc(C(=O)Nc2ccncc2)cc1)C1CCCN1C(=O)Cc1c(F)cccc1Cl (stereo not given)
  IC50: 500 to 5000 nM

## CC(C)C(C(=O)N1CCCC1C(N)c1ccc(C(=O)Nc2ccncc2)cc1)c1ccc(Cl)cc1 (stereo not given)
  IC50: 500 to 5000 nM

## COCC(=O)NCC(N)c1ccc(C(=O)Nc2ccncc2)cc1 (stereo not given)
  IC50: 500 to 5000 nM

## Cc1ccc2[nH]cc(CCNC(=O)CC(N)c3ccc(C(=O)Nc4ccncc4)cc3)c2c1 (stereo not given)
  IC50: 50 to 500 nM

## COc1ccc(CC(=O)NCC(N)c2ccc(C(=O)Nc3ccncc3)cc2)cc1F (stereo not given)
  IC50: 50 to 500 nM

## CCCCC(C)CCC(=O)NCC(N)c1ccc(C(=O)Nc2ccncc2)cc1 (stereo not given)
  IC50: 50 to 500 nM

## CN(CC(N)c1ccc(C(=O)Nc2ccncc2)cc1)C(=O)Cc1ccc2c(c1)OCO2 (stereo not given)
  IC50: 500 to 5000 nM

## NC(c1ccc(C(=O)Nc2ccncc2)cc1)C1CCCN1C(=O)C1(c2cccs2)CC1 (stereo not given)
  IC50: 500 to 5000 nM

## COC1CCC(C(=O)NCC(N)c2ccc(C(=O)Nc3ccncc3)cc2)CC1 (stereo not given)
  IC50: 500 to 5000 nM

## NC(c1ccc(C(=O)Nc2ccncc2)cc1)C1CCCN1C(=O)Cc1ccc(F)cc1 (stereo not given)
  IC50: 500 to 5000 nM

## Cc1ccccc1NC(=O)NCC(N)c1ccc(C(=O)Nc2ccncc2)cc1 (stereo not given)
  IC50: 50 to 500 nM

## NC(CNC(=O)c1ccnc2ccccc12)c1ccc(C(=O)Nc2ccncc2)cc1 (stereo not given)
  IC50: 500 to 5000 nM

## NC(CC(=O)NCc1cccc(Br)c1)c1ccc(C(=O)Nc2ccncc2)cc1 (stereo not given)
  IC50: 50 to 500 nM

## CN(CC(N)c1ccc(C(=O)Nc2ccncc2)cc1)C(=O)C1(c2ccc(F)c(F)c2)CCCC1 (stereo not given)
  IC50: 500 to 5000 nM

## NC(CNC(=O)NC1CCCCC1)c1ccc(C(=O)Nc2ccncc2)cc1 (stereo not given)
  IC50: 500 to 5000 nM

## CC(C)(C(=O)NCC(N)c1ccc(C(=O)Nc2ccncc2)cc1)c1ccc(F)cc1 (stereo not given)
  IC50: 50 to 500 nM

## NC(c1ccc(C(=O)Nc2ccncc2)cc1)C1CCCN1C(=O)C1(c2ccc(F)cc2)CCC1 (stereo not given)
  IC50: 500 to 5000 nM

## Cc1ccc(CNC(=O)CC(N)c2ccc(C(=O)Nc3ccncc3)cc2)cc1 (stereo not given)
  IC50: 50 to 500 nM

## CN(CC(N)c1ccc(C(=O)Nc2ccncc2)cc1)C(=O)C1(c2ccc(F)cc2)CCC1 (stereo not given)
  IC50: 500 to 5000 nM

## COc1ccc(CCNC(=O)CC(N)c2ccc(C(=O)Nc3ccncc3)cc2)cc1 (stereo not given)
  IC50: 50 to 500 nM
